Assay results: US20250186555A1, “FORMULATIONS COMPRISING ACID-NEUTRALIZING POLYMER FOR ORAL ADMINISTRATION OF GLUCAGON-LIKE PEPTIDE-2” (Entera Bio Ltd., priority 2022, published 2025)
Like-named read-outs stand apart in the source and are kept apart here. Values belong to the compound of their own block, whether it stands above or below them.

Columns and labels:
[1] = pH upon addition of test substance to 0.1 M HCl solution (pH 1.2), simulated gastric fluid, pH meter; format: physicochemical
Description: Test substances were dissolved in various volumes of 0.1 M HCl solution (pH 1.2) at concentrations of 1, 2, 4, 10, 20, 50, 100 and 150 mg/ml. The solution pH was determined using an MP-103 pH-meter (MRC, Israel) equipped with ELC-10-00 electrode (MRC, Israel) or with a thin electrode HI1083 (HANNA instruments Inc.), shortly after dissolution and up to 26 hours later in order to ensure that the pH remained stable. The highest pH value obtained during the experimental time period was recorded in order to compare the acid-neutralizing capacity of each substance.
SNAC and the basic polymers sodium alginate, sodium carboxymethylcellulose in non-crosslinked (Na-CMC) and crosslinked (croscarmellose sodium, CCS) forms, and sodium starch glycolate (SSG) were dissolved in various volumes of 0.1 M HCl solution (pH 1.2) at concentrations of 1, 2, 4, 10, 20, 50, 100 and 150 mg/ml, and the solution pH was determined using an MP-103 pH-meter (MRC, Israel) equipped with ELC-10-00 electrode (MRC, Israel), as described in the Materials and Methods section hereinabove.
In order to obtain a beneficial rise in pH with a reduced loss of the active form of the absorption enhancer, the effect of various concentrations of different polymers containing carboxylate groups (sodium alginate, sodium starch glycolate, sodium carboxymethylcellulose, and croscarmellose sodium) on pH upon addition to a 0.1 M HCl solution (pH 1.2) was also evaluated. FIG. 2A presents pH values determined using an MP-103 pH-meter (MRC, Israel) equipped with ELC-10-00 electrode (MRC, Israel) and FIG. 2B presents pH values determined using an MP-103 pH-meter (MRC, Israel) equipped with a thin electrode HI1083 (HANNA instruments Inc.).

[2] = Oral teduglutide/SNAC/SSG mini-tablets in rats, plasma teduglutide by ELISA; format: in vivo, Sprague-Dawley rats; details: oral mini-tablets: 0.7 mg teduglutide (2.34 mg/Kg), 15 mg SNAC, 5.33 mg SSG, n=7
Description: In an exemplary in vivo rat model, the effect of SNAC, as an exemplary absorption enhancer, and SSG, as an exemplary alkaline polymer, on the oral bioavailability of teduglutide was tested.
A formulation was prepared with 0.7 mg teduglutide (2.34 mg/Kg), 15 mg SNAC, 0.2 mg stearate and 5.33 mg SSG. All substances were in a dry powder form and mixed geometrically. Afterwards, mini-tablets were prepared from the mixes using a 2 mm punch and die set at 1 ton/cm^2.
The study was conducted in 7 male Sprague-Dawley (SD) rats weighing about 299 grams (290-320 grams). Animals were deprived of food 12-15 hours prior to administration. Water supply was removed one hour before administration and returned one hour post-administration. The mini-tablets were administered by a flexible intragastric gavage with a tip adapted for solid dosage forms administration, without the aid of water. Blood samples were thereafter collected at pre-determined time points, the plasma was separated, and the plasma level of teduglutide was quantified by an ELISA kit for the detection of endogenous GLP-2 in plasma (Abcam, Cat. No. ab222863) according to manufacturer's method Version 7, upon required modifications.

[3] = teduglutide without the formulation; cited from earlier work
[4] = compared with endogenous GLP-2; cited from earlier work
[5] = cited from earlier work

pH 5 minutes after dissolution ([1]; 10 mg/ml SNAC added to HCl solution (pH 1.2)): about 1.5
pH 5 minutes after dissolution ([1]; 20 mg/ml SNAC added to HCl solution (pH 1.2)): 6.5
pH 5 minutes after dissolution ([1]; 100 mg/ml SNAC added to HCl solution (pH 1.2)): about 7.5
Compound: O=C(O)CCCCCCCNC(=O)c1ccccc1O [SNAC, sodium 8-N-(2-hydroxybenzoyl)aminocaprylate]

Compound: CC[C@H](C)[C@H](NC(=O)[C@H](Cc1ccccc1)NC(=O)[C@H](CC(=O)O)NC(=O)[C@H](CCCNC(=N)N)NC(=O)[C@H](C)NC(=O)[C@H](C)NC(=O)[C@H](CC(C)C)NC(=O)[C@H](CC(N)=O)NC(=O)[C@H](CC(=O)O)NC(=O)[C@H](CC(C)C)NC(=O)[C@@H](NC(=O)[C@@H](NC(=O)[C@H](CC(N)=O)NC(=O)[C@H](CCSC)NC(=O)[C@H](CCC(=O)O)NC(=O)[C@H](CC(=O)O)NC(=O)[C@H](CO)NC(=O)[C@H](Cc1ccccc1)NC(=O)[C@H](CO)NC(=O)CNC(=O)[C@H](CC(=O)O)NC(=O)CNC(=O)[C@@H](N)Cc1c[nH]cn1)[C@@H](C)O)[C@@H](C)CC)C(=O)N[C@@H](CC(N)=O)C(=O)N[C@@H](Cc1c[nH]c2ccccc12)C(=O)N[C@@H](CC(C)C)C(=O)N[C@H](C(=O)N[C@@H](CCC(N)=O)C(=O)N[C@H](C(=O)N[C@@H](CCCCN)C(=O)N[C@H](C(=O)N[C@H](C(=O)N[C@@H](CC(=O)O)C(=O)O)[C@@H](C)O)[C@@H](C)CC)[C@@H](C)O)[C@@H](C)CC [teduglutide]
teduglutide plasma concentrations as a function of time [2]: enable oral delivery of teduglutide
oral (PO) bioavailability [3]: negligible
stability to metabolic degradation [4]: significantly higher stability to metabolic degradation than the endogenous glucagon like peptide 2 (GLP-2)
half-life in humans ([5]; humans): about two hours

Compound: GLP-2: Human glucagon-like peptide-2, a 33-amino acid polypeptide produced by intestinal endocrine L cells
half-life in humans ([5]; human, in vivo): about 7 minutes
